One series concerns 4% mucin suspension. In words: mucolithic activity "in vitro" with a 4% mucin suspension (viscosity reduction). Type of series: biochemical. The conditions noted are these: molar concentration 0,012 M. The text has this:
The 3-mercapto-2-oxo-1-pyrrolidinyl acetic acid (V) and its derivatives are endowed with interesting phamacological properties; particularly they are endowed with a relevant mucolithic, expectorant and anti-cough activity and moreover show a very low toxicity.

For series [1], the system named is fluid of the respiratory tract. In words: expectorant activity: fluorescein elimination in the fluid of the respiratory tract. Type of series: in vivo. Particulars: in comparison to the controls; dose 1 mM/kg/os.
A short description of series [2]: acute toxicity in the rat. The conditions noted are these: in vivo, male and female rat. An excerpt:
(§1) Thanks to their pharmacological properties and to the absence of toxicity, the compounds of formula I and their possible pharmaceutically acceptable salts may be used as drugs in the treatment of diseases of the respiratory tract.

Series [3] in a line: acute toxicity in the mouse. Particulars: in vivo, male and female mouse.
Text: as §1

Setting [4] is: tested after a suitable hydrolysis of the thioester.

Structures are written as SMILES.

In the series on 4% mucin suspension (setting [4]), `O=C(O)CN1CCC(SC(=O)c2ccccc2)C1=O` (stereo not drawn) [VII, 3-benzoylthio-2-oxo-l-pyrrolidinyl acetic acid] yielded a viscosity reduction of 16.13%.

In general, LD50 refers to the dose expected to kill half of the subjects tested. For the compound `O=C(O)CN1CCC(SC(=O)c2cccs2)C1=O` (stereo not drawn) [VI, 3-(2-thenoylthio)-2-oxo-1-pyrrolidinyl acetic acid], the viscosity reduction in the series with 4% mucin suspension (setting [4]) was 18.22%. The “increases of escretion of the colouring matter” value (“increases” below) in series [1] is 54.26%. The LD50 was > 1500 mg/kg in series [2] (ip), > 5000 mg/kg in series [2] (oral route), > 2000 mg/kg in series [3] (ip) and > 3000 mg/kg in series [3] (oral route).

In the case of `CC(=O)N[C@@H](CS)C(=O)O` [N-acetyl-L-cysteine, reference compound], the viscosity reduction with 4% mucin suspension worked out at 12.69%. For the same compound, in series [1], the “increases” value is on record as 29.63%.

With `O=C(O)CN1CCC(S)C1=O` (stereo not drawn) [V, 3-mercapto-2-oxo-1-pyrrolidinyl acetic acid], the viscosity reduction with 4% mucin suspension was 20.95%. In addition, the “increases” value in series [1] amounted to 52.92%. Moreover, the LD50 in series [2] (ip) was > 1500 mg/kg; in series [2] (oral route), > 5000 mg/kg; in series [3] (ip), > 2000 mg/kg; in series [3] (oral route), > 3000 mg/kg.

The values above are taken from patent EP0184861A1, “Derivatives of the 3-mercapto-2-oxo-1-pyrrolidinacetic acid, process for their preparation and pharmaceutical compositions containing them” (PROTER S.p.A., priority 1984, dated 1986).
